Results taken from patent US8036738B2, “Iontophoretic transdermal drug delivery system based on conductive polyaniline membrane” (priority 2006, dated 2011).
Where a name gives a salt, the structure may show the parent alone. Read-outs that look alike come from different tables or passages of the source.

Legend:
[1] = Release through PANi membrane in Franz diffusion cell, no iontophoresis
[2] = Description: To study the iontophoretic property of the PANi membranes, standard Ag|AgCl electrode was used.
[3] = PVDF membrane, aqueous-organic partitioning system, ref [9], cited from earlier work
[4] = remark: listed apart in the source
Description: For the permeation study of PANi membrane based on aqueous-organic partitioning system, doxycycline HCl suspension in light mineral oil was used as the donor solution so that its permeation results would be compared with those from a hydrophilized polyvinylidene fluoride (PVDF) membrane in a general way.

[5] = Iontophoretic release through mouse skin with and without PANi membrane; assay type: in vitro ADME; conditions: 0.3 mA/cm^2, EtOH:water 2:1 with 5% linoleic acid
Method: Skin membranes: Male hairless mice, strain SKH1, 8 weeks old, were supplied by Charles River Laboratories (Wilmington, Mass.). Mice were euthanized by carbon dioxide asphyxiation. Their skins were excised and kept at −30° C. until used.
In the case of skin membranes, the plastic bags containing the mouse skins were first taken out of the freezer and put into a beaker filled with room temperature water until they were defrosted. The skin samples were then removed from the plastic bags and cleaned of adhering fat deposits. They were then cut into small pieces of appropriate size and carefully mounted on top of the diffusion cells and left to equilibrate for 1 hour.
[formula] […] Results and Discussion
Three sets of iontophoretic experiments were carried out. In the first set, as a control test, traditional Ag|AgCl electrodes were used for the mouse skin only without the PANi membrane. In the other two sets, with the PANi membrane and the mouse skin together, either PANi|AgCl configuration or the Ag|AgCl configuration as electrodes was tested.
Therefore, instead of using a simple aqueous solution, 5% linoleic acid was added to the doxycycline HCl solution consisting of ethanol and water (EtOH: water=2:1, v/v). The reason for using ethanol was to increase the solubility of linoleic acid in the water.

[6] = as above; assay type: in vitro ADME; conditions: PANi membrane and mouse skin together, iontophoresis, aqueous donor without chemical enhancer
[7] = PANi + skin, Ag|AgCl electrodes
[8] = PANi + skin, PANi|AgCl electrodes

With Cn1c(=O)c2c(ncn2C)n(C)c1=O [Caffeine, caffeine] the “Q24 (24 hours accumulation in the receptor part)” value ([1]; PANi membrane only) was 573 ± 246 μg/cm^2, the Permeability ([1]; PANi membrane only, aqueous donor (about 200 mg/10 ml caffeine, doxycycline HCl; about 400 mg/10 ml lidocaine HCl)) was 0.012 ± 0.009 cm/h and the Flux ([1]; PANi membrane only, aqueous donor, steady state) was 240 ± 177 μg/cm^2 hr. The Flux ([1]; caffeine donor concentration 5 mg/ml, PANi membrane) was 66.6 μg/cm^2 h, the Flux ([1]; caffeine donor concentration 10 mg/ml, PANi membrane) was 136.2 μg/cm^2 h and the “increase in flux vis-a-vis Table 1” value [2] was “about 30%”. For the same compound, the release flux rate [2] was 305±79 μg/cm^2-hr.

For C[C@H]1c2cccc(O)c2C(=O)C2=C(O)[C@]3(O)C(=O)C(C(N)=O)=C(O)[C@@H](N(C)C)[C@@H]3[C@@H](O)[C@@H]21.Cl [Doxycycline HCl, doxycycline hydrochloride], the Q ([3]; 24 hr) is listed as 1440 ± 240 μg/cm^2, the Flux [3] is listed as 146 ± 27 μg/cm^2 hr and the Permeability [3] is listed as 0.03 ± 0.01 cm/h. The Flux [4] was 31 ± 18 μg/cm^2 hr, the Permeability [4] was 0.003 ± 0.002 cm/h and the Q [4] was 80 ± 46 μg/cm^2. The “release, in words” value ([5]; PANi + skin, Ag|AgCl electrode set) was “no release”, the Flux [5, 7] was 0 μg/cm^2 hr and the Q24 [5, 7] was 0 μg/cm^2. For the same compound, the Flux [5, 8] was 94.4 ± 81.2 μg/cm^2 hr, the Permeability [5, 8] was 0.0056 ± 0.0048 cm/h and the Q24 [5, 8] was 2760 ± 3980 μg/cm^2. It also gave a Flux ([5]; Skin only, Ag|AgCl electrodes) of 48.5 ± 8.5 μg/cm^2 hr, a Permeability ([5]; Skin only, Ag|AgCl electrodes) of 0.0038 ± 0.00067 cm/h and a Q24 ([5]; Skin only, Ag|AgCl electrodes) of 1020 ± 642 μg/cm^2. The “release, in words” value [6] was “no release was achieved”, the Experimental flux [2] was 793 ± 111 μg/cm^2 hr and the “amount a skin patch can deliver” value [2] was “about 0.8 mg”. The “change of flux versus passive release (Table 1), in words” value [2] was “increased more than ten times” and the release flux rate [2] was 793±111 μg/cm^2-hr.

With CCN(CC)CC(=O)Nc1c(C)cccc1C [Lidocaine HCl, lidocaine hydrochloride] the “Q24 (24 hours accumulation in the receptor part)” value ([1]; PANi membrane only) was 3330 ± 1760 μg/cm^2, the Experimental flux [2] was 411 ± 144 μg/cm^2 hr and the “change of flux versus passive release (Table 1), in words” value [2] was “small decrease in the flux”. The release flux rate [2] was 411±144 μg/cm^2-hr.
